Test results taken from patent publication US6753176B2, “Aggrecan degrading metallo proteases” (Bristol-Myers Squibb Company, priority 1997, dated 2004).
“Also recorded” adds a separate entry of the source.

Assays:
ADMP-1 = target: T1, ADMP-1 (Bos taurus, UniProt Q9TT93); assay: Binding of 67 kDa ADMP-1 doublet to aggrecanase-inhibitor hydroxamate affinity resin in the presence of inhibitor; design: species or system bovine
T1 construct: from tissue; host or cells: conditioned medium of IL-1-stimulated bovine nasal cartilage, purified over Macro S, gelatin-agarose and TIMP-1/protein A
T1 sequence (Q9TT93 213-839): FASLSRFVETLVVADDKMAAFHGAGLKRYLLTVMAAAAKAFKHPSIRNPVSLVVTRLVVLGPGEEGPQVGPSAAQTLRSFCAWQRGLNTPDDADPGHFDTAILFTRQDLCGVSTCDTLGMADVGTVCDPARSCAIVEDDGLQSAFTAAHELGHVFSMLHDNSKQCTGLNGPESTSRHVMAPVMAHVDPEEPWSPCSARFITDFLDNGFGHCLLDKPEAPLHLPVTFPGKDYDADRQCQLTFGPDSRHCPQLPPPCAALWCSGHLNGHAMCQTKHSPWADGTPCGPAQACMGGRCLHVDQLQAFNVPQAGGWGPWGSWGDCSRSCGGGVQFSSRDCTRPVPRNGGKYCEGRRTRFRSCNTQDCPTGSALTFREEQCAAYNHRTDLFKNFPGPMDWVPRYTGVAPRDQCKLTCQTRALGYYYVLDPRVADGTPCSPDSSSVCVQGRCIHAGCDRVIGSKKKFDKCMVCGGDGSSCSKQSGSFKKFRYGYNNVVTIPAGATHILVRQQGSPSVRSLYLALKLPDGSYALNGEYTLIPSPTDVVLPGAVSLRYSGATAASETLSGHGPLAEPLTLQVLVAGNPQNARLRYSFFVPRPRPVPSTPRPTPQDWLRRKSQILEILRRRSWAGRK
Description: An ADMP-inhibitor hydroxamate affinity resin was produced in the following manner. POROS 20-NH perfusive chromatographic media (Perseptive Biosystems), a highly crosslinked poly(styrene divinylbenzene) polymer, was mixed overnight with four equivalents of Fmoc-beta-alanine, four equivalents HBTU (O-Benzotriazole-N,N,N′,N′-tetramethyl-uronium hexafluorophosphate), and eight equivalents DIEA (N,N diisopropylethylamine) in DMF (dimethylformamide). The resin was rinsed several times with DMF, then the FMOC group was removed with 20% piperidine/DMF. This coupling/deprotecting scheme was repeated three more times, resulting in four beta-alanine residues coupled to the resin. After the final piperidine deprotection, 1.5 equivalents of a t-butyl protected hydroxamic acid capable of inhibiting ADMP activity was coupled with 1.5 equivalents HBTU and 3 equivalents DIEA in DMF. After rinsing with DMF and CH2Cl2, the t-butyl group was removed by mixing overnight with TFA (trifluoroacetic acid), leaving the hydroxamic acid. The resin was thoroughly rinsed with CH2Cl2 and dried under vacuum.
The eluate from the protein A column was neutralized with 1 M Tris base to pH 7.5 and then incubated for 2 hours with the aggrecanase-inhibitor hydroxamate resin at a ratio of 1 mg resin for every 1 ml of eluate. […]

ADMP = ADMP (aggrecanase) activity: cleavage of purified bovine aggrecan monomers at Glu373-Ala374, BC-3 neoepitope antibody Western; format: biochemical
Protocol: ADMPs were detected at this point by their ability to cleave purified bovine aggrecan monomers isolated from bovine nasal cartilage by the following procedure: Aggrecan was extracted from the cartilage by stirring at 4° C. for 48 hours in 10 volumes of 4M guanidine-HCl in 0.05 M sodium acetate, pH 5.8, containing the protease inhibitors, 0.01M EDTA (EDTA is ethylenediaminetetraacetic acid), 0.1M 6-aminohexanoic acid, 2 mM PMSF and 0.05M benzamidine HCl. Aggrecan monomers were isolated by equilibrium density gradient centrifugation in cesium chloride [Hascall, V. C. and Sajdera, S. W. (1969) J. Biol. Chem. 244, 2384-2396.] and the bottom of this gradient (d>1.54 g/ml) containing the aggrecan monomers, was dialyzed at 4° C. against water and lyophilized.
These aggrecan monomers (500 nM) were incubated at 37° C. for at least 4 hr with ADMPs eluted from the Macro S support column in a final volume of 200 ul in Buffer B (Buffer B contains 50 mM Tris, pH 7.6, containing 0.1 M NaCl and 10 mM CaCl2), quenched with 20 mM EDTA and analyzed for aggrecan fragments produced exclusively by cleavage at the Glu^373-Ala^374 bond within the aggrecan core protein using the monoclonal antibody, BC-3 (Hughes, C. E., et al., Biochem. J. 306:799-804, 1995). This antibody recognizes aggrecan fragments with the N-terminal sequence A^374RGSVIL . . . , generated upon cleavage by ADMPs. The BC-3 antibody recognizes this neoepitope only when it is the N-terminus and not when it is present internally within aggrecan fragments or within the intact aggrecan core protein. […]
After digestion, the samples were precipitated with 5 volumes of acetone and reconstituted in an appropriate volume of SDS-PAGE sample buffer, loaded on 4-12% gradient gels and then separated by SDS-PAGE under non reducing conditions, transferred overnight to nitrocellulose and immunolocated with 1:1000 dilution of the monoclonal antibody BC-3. […] BC-3-reactive aggrecan fragments were then quantified by scanning densitometry.

[1] = system: matrix metalloproteinases; assay: Inhibition of matrix metalloproteinases; format: biochemical

Row | binding of 67 kDa ADMP-1 to the affinity resin (ADMP-1; compound present during affinity purification) | binding of 67 kDa ADMP-1 doublet to aggrecanase-inhibitor hydroxamate resin (ADMP-1; 10 uM compound included during affinity purification) | Compound | inhibition of ADMP activity (ADMP) | inhibition of matrix metalloproteinases [1]
1 | not affected | – | CNC(=O)[C@H]1CCCNN1C(=O)[C@@H](CC(C)C)[C@@H](C)C(=O)NO [Compound A, N3-methyl-(3R)-2-[(2S)-2-[(1R)-2-(hydroxyamino)-1-methyl-2-oxoethyl]-4-methylpentanoyl]hexahydro-3-pyridazinecarboxamide] | ineffective; also recorded: inactive | broad spectrum inhibitor; also recorded: potent inhibitor
2 | – | blocked | CNC(=O)[C@@H]1CCCCNC(=O)CC[C@H](C(=O)NO)[C@H](CC(C)C)C(=O)N1 [Compound B, (2S,11S, 12S)-12-isobutyl-2-[(methylamino)carbonyl]-11[(hydroxylamino)carbonyl]-8,13-dioxo-1,7-diazacyclotridecane] | potent ADMP inhibitor | –
3 | – | – | tissue inhibitor of metalloproteinases-1 [TIMP-1] | inhibited | –
